Values quoted from earlier work, collected in paper PMC9065038 (Scientific Reports, 2022).

How the values were obtained:
[1] = set-up: method as in PMID 28635181; conditions: rats
[2] = in vivo
[3] = in vivo; remark: listed apart in the source
[4] = constipation, respiratory depression
[5] = biological target: NOP receptor (S346, S351, T362/S363) (Homo sapiens, UniProt P41146)
Chain of NOP receptor (S346, S351, T362/S363) (P41146 whole entry): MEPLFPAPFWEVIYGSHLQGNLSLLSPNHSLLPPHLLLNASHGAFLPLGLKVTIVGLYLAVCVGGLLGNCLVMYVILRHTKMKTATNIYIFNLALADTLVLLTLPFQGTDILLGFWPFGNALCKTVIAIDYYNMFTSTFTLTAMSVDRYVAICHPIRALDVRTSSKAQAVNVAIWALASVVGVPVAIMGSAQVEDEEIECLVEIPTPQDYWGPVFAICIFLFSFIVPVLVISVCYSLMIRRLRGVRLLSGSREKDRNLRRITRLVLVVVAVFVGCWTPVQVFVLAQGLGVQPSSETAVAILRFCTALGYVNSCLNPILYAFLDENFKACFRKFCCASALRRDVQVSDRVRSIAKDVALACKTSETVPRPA

CCC1C(=O)N(C2CCN(CCC(c3ccccc3)c3ccccc3)CC2)c2ccccc21 (stereo not drawn) [AT-034]
cocaine self-administration [1]: significantly reduce cocaine self-administration

CC(C)[C@H]1CC[C@@H](N2CCC3(CC2)C(=O)N(CCNS(N)(=O)=O)Cc2ccccc23)CC1 [AT-121]
anti-nociceptive and anti-hyperalgesic effects [2]: potent anti-nociceptive and anti-hyperalgesic effects
reinforcing effects or physical dependence [3]: devoid of reinforcing effects or physical dependence
tolerance development [3]: significantly lower tolerance development

COc1ccsc1CNCC[C@@]1(c2ccccn2)CCOC2(CCCC2)C1 [TRV130]
side-effects in clinical trials [4]: failed to produce therapeutic results devoid of side-effects

buprenorphine
NOP phosphorylation profile (in words) [5]: none at NOP
